This is an account of results in patent EP2730577A1, “CRYSTAL MODIFICATION OF A PARA-METHOXYANILIDE OF 6-HYDROXY-4-OXO-2,4,DIHYDRO-1H-PYRROLO[3,2,1-IJ]-QUINOLINE-5-CARBOXYLIC ACID” (Otkrytoe Aktsionernoe Obschestvo Mezhdunarodnaya, priority 2012, dated 2013).

In test [1] the test system is white rats. Briefly: Diuretic effect (urinary excretion) in rats after oral administration. Type of test: in vivo. As to conditions: for Diuresis after 5 hr.: 10 mg/kg orally as a fine suspension in water stabilized with Tween-80, after water load, urine excreted over 5 hrs, control 4.3 ± 0.20 ml, 10 mg/kg; for Diuretic effect: 5 hr, relative to control = 100, 10 mg/kg. Here is the method:
Example 6. Diuretic effect of the novel crystal modification (β-form) of 6-hydroxy-4-oxo-2,4-dihydro-1H-pyrrolo[3,2,1-ij]-quinoline-5-carboxylic acid para-metoxyanilide compared to the effect of the known crystal modification (α-form) of the same compound was studied on white rats weighing 180 - 200 g
(12 animals per each compound) using a standard technique. All tested animals received water via a gastric tube at 5 ml per […] of body weight. The control group received the same amount of water with Tween 80. The tested substances were administered orally at 10 mg/kg (median effective dose of the known α-form) as a fine suspension in water stabilized with Tween-80. After that, the tested animals were placed into "exchange cages". The urinary excretion intensity was determined by the amount of urine excreted by the animals over a period of 5 hrs. The experimental data shown in Table 9 leads to a conclusion that the diuretic action of the novel crystal modification (β-form) of 6-hydroxy-4-oxo-2,4-dihydro-1H-pyrrolo[3,2,1-ij]-quinoline-5-carboxylic acid para-metoxyanilide exceeds that of the known α-form by an average of 19%.

For test [2], the system named is white rats. As to conditions: diuretic effect, oral; stated for the known α-form without data of its own; cited from earlier work.

Consider `COc1ccc(NC(=O)c2c(O)c3cccc4c3n(c2=O)CC4)cc1` [Known α-form, 6-hydroxy-4-oxo-2,4-dihydro-1H-pyrrolo[3,2,1-ij]-quinoline-5-carboxylic acid para-metoxyanilide], for which the “Diuresis after 5 hr.” value in the test with white rats [1] stood at 9.7 ± 0.28 mL. The Diuretic effect in the test with white rats [1] (10 mg/kg orally) is listed as 226%. Moreover, the median effective dose with white rats [2] was 10 mg/kg.
For `COc1ccc(NC(=O)c2c(O)c3cccc4c3n(c2=O)CC4)cc1` [Novel β-form, 6-hydroxy-4-oxo-2,4-dihydro-1H-pyrrolo[3,2,1-ij]-quinoline-5-carboxylic acid para-metoxyanilide], the “Diuresis after 5 hr.” value in the test with white rats [1] was found to be 10.5 ± 0.27 mL. In addition, the Diuretic effect in the test on white rats [1] (10 mg/kg orally) turned out to be 245%. Further, the “diuretic action exceeds that of the known α-form” value with white rats [1] (10 mg/kg orally, 5 hrs, β-form versus α-form, average) is 19%.
